Assay results from patent publication US8852569B2, “Prevention and treatment of itch with cysteine protease inhibition” (The General Hospital Corporation, priority 2008, dated 2014).

Key:
human cathepsin K = target: T1, human cathepsin K (Homo sapiens, UniProt P43235); assay: Chromogenic substrate assay, inhibition of cathepsin K by E64; assay type: biochemical; conditions: FIG. 1; protease 0.84 μM, E64 2 μM
T1 construct: made in house; host or cells: E. coli
T1 sequence (P43235 115-329): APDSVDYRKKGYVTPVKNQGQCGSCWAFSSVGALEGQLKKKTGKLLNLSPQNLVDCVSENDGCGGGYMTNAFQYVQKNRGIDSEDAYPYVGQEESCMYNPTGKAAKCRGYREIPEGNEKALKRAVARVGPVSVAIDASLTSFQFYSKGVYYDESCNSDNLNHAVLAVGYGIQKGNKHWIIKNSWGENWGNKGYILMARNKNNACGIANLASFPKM
Procedure: (§1) The concentrations of all the three proteases are at 0.84 μM and that of E64, a non-selective irreversible inhibitor of cysteine proteases, is at 2 μM […].
(§2) Papain served as a positive control cysteine protease. The cathepsin S and K were further evaluated for their capacity to activate PAR receptors as noted below.

PAR2 = assay: PAR activation by cytoplasmic calcium release in transfected HeLa cells (Fura-2 ratiometric imaging), PAR2; assay type: cell-based, human; conditions: FIG. 3C; cathepsin S 2 μM, E64 10 μM, fura-2 single cell imaging
Procedure: (§3) The responses to PAR 2 and 4 were blocked by the protease inhibitor E64 (10 μM) as a control). Other controls included vector alone and vector encoding the PAR1 receptor. Cathepsin S was added as indicated. The averages from at least three separate experiments were then combined +/−SD.
(§4) Salmon sperm (SS) DNA is used as control. The averages from at least three separate experiments were then combined +/−SD.
(§5) PAR activation observed by cytoplasmic calcium release—The four human PAR cDNAs were obtained from commercial sources and cloned into the pcDNA3.1(−) vector (INVITROGEN™ Inc.). HeLa cells were transfected with 10 μg of vector cDNA using Lipofectamine 2000 (INVITROGEN™ Inc.) and cultured for two days in 96-well glass bottom plates at 30,000 cells/well. Cells were loaded with Fura-2 as follows. The medium was aspirated and replaced with 100 μl of complete DMEM containing 2 μM Fura-2 (INVITROGEN™ Inc.) and kept at room temperature in the dark for 1 hr. The medium was again aspirated and each well received 90 μl of HEPES buffered saline (20 mM HEPES, 115 mM NaCl, 5.4 mM KCl, 2 mM CaCl2, 0.8 mM MgCl2, 13.8 mM glucose, pH 7.4). Plates were observed using a Zeiss Axiovert 200M microscope equipped with a filter wheel for monitoring excitation at 340 and 380 nm. Axiovision software, version 4.6 was used to analyze ratiometric calcium imaging of the cells. […]

PAR4 = assay: PAR activation by cytoplasmic calcium release in transfected HeLa cells (Fura-2 ratiometric imaging), PAR4; assay type: cell-based, human; conditions: FIG. 3C; cathepsin S 2 μM, E64 10 μM, fura-2 single cell imaging
Procedure: as §3, §4, §5

human cathepsin S = target: T2, human cathepsin S (Homo sapiens, UniProt P25774); assay: Chromogenic substrate assay, inhibition of cathepsin S by E64; assay type: biochemical; conditions: FIG. 1; protease 0.84 μM, E64 2 μM
T2 construct: made in house; host or cells: E. coli
Procedure: as §1, §2

T2 sequence (P25774 115-331): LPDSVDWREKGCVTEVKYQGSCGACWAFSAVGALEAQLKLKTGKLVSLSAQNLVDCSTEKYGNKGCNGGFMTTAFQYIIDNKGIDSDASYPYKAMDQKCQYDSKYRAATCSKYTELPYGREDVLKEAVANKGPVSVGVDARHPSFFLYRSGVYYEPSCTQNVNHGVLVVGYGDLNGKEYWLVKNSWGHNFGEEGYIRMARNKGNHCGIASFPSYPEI

Q: `CC(C)C[C@H](NC(=O)[C@H]1O[C@@H]1C(=O)O)C(=O)NCCCCN=C(N)N` (relative stereo) [E64, trans-epoxysuccinyl-L-leucylamide-(4-guanidino) butane, reference compound] was tested. Which “protease activity of cathepsin K (cleavage of Z-Phe-Arg-pNA) in presence of E64” value (human cathepsin K) did it give?
A: Its value is “eliminated”.

Q: What about the “cathepsin S induced PAR2 response in presence of E64” value (PAR2) of the same molecule?
A: The value was “blocked”.

Q: And the “cathepsin S induced PAR4 response in presence of E64” value (PAR4)?
A: The value was “blocked”.

Q: What about the “protease activity of cathepsin S (cleavage of Z-Phe-Arg-pNA) in presence of E64” value (human cathepsin S) of the same molecule?
A: Its value is “eliminated”.
